In patent US6852695B2, “Orally active fraction of momordica charantia, active peptides thereof, and their use in the treatment of diabetes” (Theracos, Inc., priority 1997, dated 2005):

Key:
normal rats = experiment: Oral glucose tolerance test in normal rats; type: in vivo, rat; conditions: compared to vehicle treated animals, FIG. 11
From the text: FIG. 11 represents the hypoglycemic activity of MC6.1 and its derivators, MC6.2 and 6.3 analogs in oral glucose tolerance test in normal rats.

SD rats = experiment: Comparison of MC6 (oral, i.v.) with i.v. r-insulin during glucose infusion in SD rats; type: in vivo, rat; conditions: 500 μg MC6 i.v. or 150 mU r-insulin i.v. at 60 minutes following glucose infusion, FIG. 5
Procedure: In the next experiment, orally administered purified fraction MC6 (500 μg) was compared with i.v. injection of insulin (150 mU) in SD rats. Animals were divided into four groups and starved for three hours. Group 1 received PBS only; group 2 was given MC6 orally 60 minutes before glucose infusion; group 3 received 150 mU r-insulin (Humalin-R® of Novo-Nordisk) i.v. at 60 minutes following glucose infusion through jugular vein and group 4 received 500 μg MC6 in 1 ml PBS (i.v.) at 60 minutes following glucose infusion through jugular vein. In all cases, glucose infusion was at 18 mg/min/kg. Blood samples were collected from the carotid artery at different time intervals and quantitative plasma glucose levels were measured […].

Row | Substance | lowering blood glucose in oral glucose tolerance test (normal rats) | hypoglycemic profile, systemic (i.v.) injection (SD rats)
1 | 6.3: 7-a.a. derivative of MC6.1: K-T-N-M-K-H-M (SEQ ID NO:03) (KTNMKHM) | effective in lowering blood glucose | 
2 | r-insulin: r-insulin (Humalin-R of Novo-Nordisk), 150 mU i.v., comparator |  | identical hypoglycemic profile
